From patent publication US7781477B2, “Therapeutic use of N-(1H-Indolyl)-1H-indole-2-carboxamide derivatives” (Sanofi-Aventis, priority 2004, dated 2010)

Assays:
TRPV1 receptor = molecular target: T1, TRPV1 receptor (Rattus norvegicus, UniProt O35433); assay: Inhibition of the current induced by capsaicin with regard to rat DRGs (whole cell patch clamp); format: cell-based; conditions: DRG neuron; % inhibition of the control capsaicin (300 nM) response; compound at 10 nM; primary culture of newborn rat DRG neurons; read-out: % Inhibition by the DRG patch technique
T1 construct: The neurons of the DRG naturally express the TRPV1 receptor; endogenous in cells; host or cells: primary culture of newborn rat dorsal root ganglion (DRG) neurons
Experimental: Test of the Inhibition of the Current Induced by Capsaicin with Regard to Rat DRGs
Primary Culture of Rat Dorsal Route Ganglion (DRG) Cells:
The neurons of the DRG naturally express the TRPV1 receptor.
Primary cultures of DRGs of newborn rats are prepared from 1-day-old rats. Briefly, after dissection, the ganglions are trypsinized and their cells dissociated mechanically by gentle trituration. […]
The measurement chambers (volume 800 μl) comprising the cell preparation are placed on the stage of an inverted microscope (Olympus IMT2) equipped with Hoffman optics (Modulation Contrast, New York) and are observed at a magnification of 400×. […] The overall currents (membrane potential set at −60 mV) are recorded with an Axopatch 1D amplifier (Axon Instruments, Foster City, Calif.) connected to a PC controlled by Pclamp8 software (Axon Instruments). The current plots are recorded on paper and simultaneously recorded digitally (sampling frequency 15 to 25 Hz) and acquired on the hard disk of the PC.
The application of a 300 nM capsaicin solution produces an incoming cationic current with regard to the DRG cells (voltage set at −70 mV). […] The results are expressed as % of inhibition of the control capsaicin response.

TRPV1 receptors = molecular target: T2, TRPV1 receptors (Mus musculus, UniProt Q704Y3); assay: Mouse corneal irritation test (capsaicin ocular instillation); format: in vivo; conditions: percentage of protection against rubbing of the eye induced by 2 μl of 160 μM capsaicin, pretreatment time 1 h
T2 construct: from tissue; host or cells: living mouse, cornea (C fibers)
Experimental: Mouse Corneal Irritation Test
The irritating nature of capsaicin is easily assessed on the cornea since this organ is one of the most innervated by C fibers. In this context, according to preliminary experiments, the application of a very small amount of capsaicin (2 μl at a concentration of 160 μM) at the surface of the cornea of an animal results in a number of kinds of stereotyped behavior related to irritation which are easy to record. These include: blinking of the eye, rubbing of the instilled eye by the ipsilateral front paw, rubbing of the face with the two front paws and scratching of the ipsilateral face by the hind paw. […] Its appearance is furthermore also normal. […] It may be concluded therefrom that the duration of action of capsaicin at these doses is less than 2 minutes. […]
In practice, the test product is administered orally and, with a delay (pretreatment time: t) which depends on the pharmacokinetic data, the animal receives the ocular instillation of 2 μl of a 160 μM capsaicin solution prepared as indicated above. During observation for 2 minutes following the instillation, the number of rubbing actions on the instilled eye by the ipsilateral front paw is recorded.
For a given animal, the percentage of protection is calculated as follows: P=100−((number of scratching actions observed/mean number of scratching actions of the group treated with the solvent)×100). […]

T2 sequence (Q704Y3 whole entry): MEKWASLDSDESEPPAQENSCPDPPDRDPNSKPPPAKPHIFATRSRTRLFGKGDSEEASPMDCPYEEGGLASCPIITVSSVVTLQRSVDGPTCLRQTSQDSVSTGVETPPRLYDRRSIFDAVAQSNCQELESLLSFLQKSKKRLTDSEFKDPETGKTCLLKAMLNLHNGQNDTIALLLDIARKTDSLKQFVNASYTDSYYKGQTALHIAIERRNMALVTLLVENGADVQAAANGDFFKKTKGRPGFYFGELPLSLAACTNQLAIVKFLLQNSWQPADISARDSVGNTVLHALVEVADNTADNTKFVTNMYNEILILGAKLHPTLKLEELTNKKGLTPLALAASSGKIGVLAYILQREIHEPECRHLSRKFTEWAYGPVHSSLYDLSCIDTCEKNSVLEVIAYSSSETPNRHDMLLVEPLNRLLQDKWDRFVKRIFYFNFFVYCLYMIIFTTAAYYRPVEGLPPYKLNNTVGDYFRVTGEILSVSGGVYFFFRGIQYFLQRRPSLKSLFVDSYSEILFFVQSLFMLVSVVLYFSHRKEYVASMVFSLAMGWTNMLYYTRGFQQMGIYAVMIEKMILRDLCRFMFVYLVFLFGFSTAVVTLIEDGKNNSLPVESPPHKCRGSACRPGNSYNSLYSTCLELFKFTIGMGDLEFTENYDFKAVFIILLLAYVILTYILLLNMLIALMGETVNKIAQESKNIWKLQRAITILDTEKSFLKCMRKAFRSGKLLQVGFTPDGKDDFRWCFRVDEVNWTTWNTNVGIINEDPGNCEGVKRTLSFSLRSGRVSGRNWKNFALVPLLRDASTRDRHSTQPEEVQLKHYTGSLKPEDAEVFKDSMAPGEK
T1 sequence (O35433 whole entry): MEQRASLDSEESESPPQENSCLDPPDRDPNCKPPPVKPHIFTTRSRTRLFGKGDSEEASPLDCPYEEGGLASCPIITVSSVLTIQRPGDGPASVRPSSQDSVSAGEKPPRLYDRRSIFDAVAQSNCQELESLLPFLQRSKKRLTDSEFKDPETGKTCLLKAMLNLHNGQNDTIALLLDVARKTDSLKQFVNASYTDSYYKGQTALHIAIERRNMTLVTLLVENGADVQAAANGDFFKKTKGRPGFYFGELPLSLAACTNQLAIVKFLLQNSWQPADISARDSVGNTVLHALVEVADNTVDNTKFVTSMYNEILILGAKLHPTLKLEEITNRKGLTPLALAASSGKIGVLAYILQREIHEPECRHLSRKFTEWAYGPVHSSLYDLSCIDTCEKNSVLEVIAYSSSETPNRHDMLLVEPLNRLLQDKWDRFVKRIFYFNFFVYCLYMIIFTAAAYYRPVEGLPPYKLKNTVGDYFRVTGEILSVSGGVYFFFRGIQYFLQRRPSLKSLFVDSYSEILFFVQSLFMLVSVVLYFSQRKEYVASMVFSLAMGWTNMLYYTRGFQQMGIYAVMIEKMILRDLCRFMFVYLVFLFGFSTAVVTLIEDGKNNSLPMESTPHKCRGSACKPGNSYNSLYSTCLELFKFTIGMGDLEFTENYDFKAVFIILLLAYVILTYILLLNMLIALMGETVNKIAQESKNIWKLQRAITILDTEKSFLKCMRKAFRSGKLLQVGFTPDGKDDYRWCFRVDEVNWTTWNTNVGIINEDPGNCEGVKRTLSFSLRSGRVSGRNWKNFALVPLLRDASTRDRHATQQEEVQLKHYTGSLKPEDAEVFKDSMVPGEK

## Cn1ccc2cc(NC(=O)c3cc4ccccc4n3Cc3cccc(C(F)(F)F)c3)ccc21 [Compound No. 1, N-(1-Methyl-1H-indol-5-yl)-1-(3-trifluoromethylbenzyl)-1H-indole-2-carboxamide]
TRPV1 receptor
  inhibition at 0.01 µM: 56%
TRPV1 receptors
  % P - (t) at 60 mg/kg (p.o.) - (n = 8): 26% - (1 h)
